Where two headings read alike, the source gives them in different places.
Tests used:
[1] = test system: TNF-α, U937 human histiocytic lymphoma cell line; test: LPS stimulation of TNF production by U937 cells; format: cell-based; conditions: for inhibition at 1 µM: U-937, @ 1.0 uM, read-out: U937 Cell % inhib @ conc.
Procedure, shortened: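 U937 cells differentiated 24 h with 20 ng/ml PMA, rested 24-48 h, used at 2 million cells/ml. Compounds in 0.1% DMSO final; LPS (E. coli, 100 ng/ml final) stimulation for 4 h at 37° C. Released TNF-α measured by ELISA; IC50 (μM).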

human p38 kinase alpha = target: T1, human p38 kinase alpha (Homo sapiens, UniProt Q16539); test: p38 kinase in vitro assay, phosphorylation of biotinylated PHAS-I with 32P-ATP; format: biochemical
T1 construct: GST (N, cleaved yes); made in house; host or cells: E. coli DH10B

[2] = Homo sapiens, TNF production, LPS-stimulated U937 cells
[3] = in vitro P38-alpha kinase, read-out: P38 alpha kinase IC50
[4] = @ 1.0 uM, TNF production, U937 cells stimulated with LPS
[5] = in vitro P38-alpha kinase inhibition, read-out: P38 alpha kinase IC50
[6] = Homo sapiens, TNF production in human U937 cells stimulated with LPS
[7] = TNF production, U937 cells stimulated with LPS, read-out: U937 Cell IC50, uM or % inhib @ conc. (uM): IC50
[8] = Table 5, LPS-stimulated U937 cells, TNF-α, read-out: U937 Cell Assay IC50
[9] = activated human p38 kinase alpha, PHAS-I substrate, 50 μM unlabeled ATP, read-out: p38 kinase IC50
[10] = Homo sapiens, U-937, TNF production, human U937 cells stimulated with LPS, read-out: U937 Cell IC50

T1 sequence (Q16539 whole entry): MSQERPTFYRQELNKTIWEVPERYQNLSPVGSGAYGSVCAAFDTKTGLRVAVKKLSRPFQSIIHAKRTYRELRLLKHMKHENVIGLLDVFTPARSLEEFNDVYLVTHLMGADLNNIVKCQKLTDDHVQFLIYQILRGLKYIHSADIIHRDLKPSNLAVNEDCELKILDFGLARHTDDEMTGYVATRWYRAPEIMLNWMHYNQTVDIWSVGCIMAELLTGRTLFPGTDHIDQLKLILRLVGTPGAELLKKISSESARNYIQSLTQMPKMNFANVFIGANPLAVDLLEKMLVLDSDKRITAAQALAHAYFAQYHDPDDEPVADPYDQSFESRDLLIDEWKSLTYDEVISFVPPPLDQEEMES

Compound	IC50 (human p38 kinase alpha; [3]) [µM]	IC50 (human p38 kinase alpha; [5]) [µM]	inhibition at 1 µM [1, 2] [%]	further results
CC(=O)OC(C)C(=O)NC(Cc1ccccc1)c1[nH]nc(-c2ccc(F)cc2)c1-c1ccncc1 (stereo not drawn) [Example B-0841]	–	0.32	–	U937 Cell % inhib @ conc. (uM) [1, 4]: 36.0% @
COc1ccc(NC(=O)NC(C)c2[nH]nc(-c3ccc(F)cc3)c2-c2ccncc2)c(OC)c1 (stereo not drawn) [Example B-0599]	–	4.16	–	U937 Cell % inhib @ conc. (uM) ([1]; @ 1.0 uM, TNF production in human U937 cells stimulated with LPS): 21.0% @
CC(C)=CC(=O)NC(C)c1[nH]nc(-c2ccc(F)cc2)c1-c1ccncc1 (stereo not drawn) [Example B-0547]	–	1.24	–	inhibition at 1 µM [1, 6]: 21%
Cc1c(-c2ccncc2)c(-c2ccc(F)cc2)nn1CC(=O)Nc1ccccc1OC(F)(F)F [Example B-2453]	–	–	–	IC50 [1, 7]: > 10 µM; P38 alpha kinase IC50, uM or % inhib @ conc. (uM): % inhib (human p38 kinase alpha; @ 10.0 uM): 91.0% @
Cc1[nH]nc(-c2cccc(Cl)c2)c1-c1ccncc1 [Example A-51]	–	–	–	IC50 [1, 8]: 0.074 µM; IC50 (human p38 kinase alpha; [9]): < 0.1 µM
O=C(NCCc1[nH]nc(-c2ccc(F)cc2)c1-c1ccncc1)c1cc(Cl)cc(Cl)c1 [Example B-1126]	–	1.5	–	IC50 [1, 10]: > 1 µM
CCOC(=O)NC(=O)NCc1[nH]nc(-c2ccc(F)cc2)c1-c1ccncc1 [Example B-0152]	–	–	–	U937 Cell % inhib @ conc. [1, 4]: 24.0% @; P38 alpha kinase % inhib @ conc. (human p38 kinase alpha; @ 1.0 uM): 51.0% @
Cc1cc(Cl)ccc1OCC1SCCN1C(=O)Cn1nc(-c2ccc(F)cc2)c(-c2ccncc2)c1C (stereo not drawn) [Example B-2405]	–	–	–	IC50 [1, 7]: > 10 µM; P38 alpha kinase IC50, uM or % inhib @ conc. (uM): % inhib (human p38 kinase alpha; @ 100.0 uM): 47% @
O=C(NC(Cc1ccccc1)c1[nH]nc(-c2ccc(F)cc2)c1-c1ccncc1)c1ccc(F)c(F)c1F (stereo not drawn) [Example B-0813]	–	3.02	–	IC50 [1, 10]: > 1 µM
CC(NC(=O)c1ccno1)c1[nH]nc(-c2ccc(F)cc2)c1-c1ccncc1 (stereo not drawn) [Example B-0541]	–	3.24	–	inhibition at 1 µM [1, 6]: 28%
O=C(NCCCc1[nH]nc(-c2ccc(F)cc2)c1-c1ccncc1)NCCc1ccccn1 [Example B-1314]	0.045	–	24	–
Cc1c(-c2ccncc2)c(-c2ccc(F)cc2)nn1CC(=O)NC1CCc2ccccc21 (stereo not drawn) [Example B-2318]	–	–	–	U937 Cell % inhib @ conc. ([1]; @ 10.0 uM, TNF production, LPS-stimulated U937 cells): 25.0% @; P38 alpha kinase % inhib @ conc. (human p38 kinase alpha; @ 10.0 uM): 73.0% @
CC(=O)OC(C)C(=O)NC(Cc1ccccc1)c1[nH]nc(-c2ccc(F)cc2)c1-c1ccncc1 (stereo not drawn) [Example B-0809]	–	1.22	–	U937 Cell % inhib @ conc. (uM) [1, 4]: 7.0% @
CC(C)=CC(=O)NCCCc1[nH]nc(-c2ccc(F)cc2)c1-c1ccncc1 [Example B-1175]	–	–	–	IC50 ([1]; TNF production, human U937 cells stimulated with LPS, read-out: U937 Cell IC50): 1.83 µM; P38 alpha kinase % inhib @ conc. (uM) (human p38 kinase alpha; @ 1.0 uM): 72.0% @
Cc1n[nH]c(-c2ccc(Br)cc2)c1-c1ccncc1 [Example A-39]	–	–	–	IC50 [1, 8]: 0.244 µM; IC50 (human p38 kinase alpha; [9]): 1.1 µM

Now from value to molecule, other results behind:

IC50 (human p38 kinase alpha; [3]) [µM]	IC50 (human p38 kinase alpha; [5]) [µM]	Compound	inhibition at 1 µM [1, 2] [%]	further results
0.92	–	O=C(c1ccccc1Cl)N1CCC(c2[nH]nc(-c3ccc(F)cc3)c2-c2ccncc2)CC1 [Example B-1397]	85	–
0.96	–	O=S(=O)(c1ccccc1C(F)(F)F)N1CCC(c2[nH]nc(-c3ccc(F)cc3)c2-c2ccncc2)CC1 [Example B-1460]	29	–
0.062	–	O=S(=O)(NCCCc1[nH]nc(-c2ccc(F)cc2)c1-c1ccncc1)c1cccc(C(F)(F)F)c1 [Example B-1276]	11	–
–	0.08	O=S(=O)(NCCc1[nH]nc(-c2ccc(F)cc2)c1-c1ccncc1)c1ccc(Cl)cc1Cl [Example B-1076]	–	inhibition at 1 µM ([1]; Homo sapiens, TNF production, U937 cells stimulated with LPS): 31%
1.54	–	CN(C)c1cccc2c(S(=O)(=O)N3CCC(c4[nH]nc(-c5ccc(F)cc5)c4-c4ccncc4)CC3)cccc12 [Example B-1442]	18	–
0.37	–	N#Cc1cccc(S(=O)(=O)N2CCC(c3[nH]nc(-c4ccc(F)cc4)c3-c3ccncc3)CC2)c1 [Example B-1469]	14	–
1.23	–	O=S(=O)(c1ccc(C(F)(F)F)cc1)N1CCC(c2[nH]nc(-c3ccc(F)cc3)c2-c2ccncc2)CC1 [Example B-1474]	31	–
1.21	–	O=S(=O)(c1c(F)cccc1F)N1CCC(c2[nH]nc(-c3ccc(F)cc3)c2-c2ccncc2)CC1 [Example B-1455]	8	–
–	0.3	O=S(=O)(NC(Cc1ccccc1)c1[nH]nc(-c2ccc(F)cc2)c1-c1ccncc1)c1cccs1 (stereo not drawn) [Example B-0765]	–	inhibition at 1 µM [1, 6]: 29%

Reference: patent US6979686B1, “Substituted pyrazoles as p38 kinase inhibitors” (Pharmacia Corporation, priority 2001, dated 2005)
